This passage reports inhibition, Activity and EC50 results from ChEMBL document CHEMBL3044600 (Biochem Syst Ecol, 2008).

Structures are written as SMILES. Values after ≈ are worked out from the molar mass of the structure shown. Active and inactive are the calls of the source. No cut-off for these calls is given here. Where only a bound is given, the exact number is not on record here.

The first data set concerns Lactuca sativa. Briefly: Phytotoxicity against Lactuca sativa var. Carrascoy (lettuce) assessed as inhibition of radicle length at 50 ug/cm2 after 24 to 144 hr. It is filed as functional.
Conditions: not given
Usually inhibition stands for the drop in the measured response relative to a control, in per cent. Take `C=C1C(=O)O[C@@H]2CCN3CC=C(COC(=O)[C@](C)(O)[C@H](C)[C@H]1C)[C@H]23`: the inhibition at 50 µg/cm2 is less than 50%.
The same measure, in the same setting: with `C/C=C1\C[C@@H](C)[C@](O)(CO)C(=O)OCC2=CCN3CC[C@@H](OC1=O)[C@@H]23` (stereo in doubt; 8) [RETRORSINE] the figure was less than 50%.
The same measure, in the same setting: the result for `C/C=C1/C[C@@H](C)[C@@](C)(OC(C)=O)C(=O)OC/C2=C/CN(C)CC[C@@H](OC1=O)C2=O` [ACETYLSENKIRKINE] reads less than 50%.
For the molecule `C/C=C1\C[C@@H](C)[C@](O)(COC(C)=O)C(=O)OCC2=CCN3CC[C@@H](OC1=O)[C@@H]23` [ACETYLUSARAMINE], the inhibition at 50 µg/cm2 was less than 50%.

The subject of a further data set is Rhopalosiphum padi. As to the kind of experiment: Antifeedant activity against Rhopalosiphum padi adults fed on compound treated Hordeum vulgare annuum leaves assessed as feeding level at 50 ug/cm2 (reference value: 47 to 64%). In kind it is functional.
Conditions: not given
As to `C/C=C1\C[C@@H](C)[C@](O)(CO)C(=O)OCC2=CCN3CC[C@@H](OC1=O)[C@@H]23` (stereo in doubt; 8) [RETRORSINE], the Activity came to 40%.
Consider `C/C=C1/C[C@@H](C)[C@@](C)(OC(C)=O)C(=O)OC/C2=C/CN(C)CC[C@@H](OC1=O)C2=O` [ACETYLSENKIRKINE], for which the Activity stood at 42%.

A further data set relates to Spodoptera littoralis. Briefly: Antifeedant activity against Spodoptera littoralis L6 larvae assessed as biomass gain orally dosed with 40 ug after 72 hr relative to untreated control. In kind it is functional.
Conditions: not given
As to `C=C1C(=O)O[C@@H]2CCN3CC=C(COC(=O)[C@](C)(O)[C@H](C)[C@H]1C)[C@H]23`, the Activity amounted to 90%.
On to `C/C=C1\C[C@@H](C)[C@](O)(CO)C(=O)OCC2=CCN3CC[C@@H](OC1=O)[C@@H]23` (stereo in doubt; 8) [RETRORSINE], for which the Activity was determined as 102%.
For `C/C=C1/C[C@@H](C)[C@@](C)(OC(C)=O)C(=O)OC/C2=C/CN(C)CC[C@@H](OC1=O)C2=O` [ACETYLSENKIRKINE], the Activity was determined as 100%.
Consider `C/C=C1\C[C@@H](C)[C@](O)(COC(C)=O)C(=O)OCC2=CCN3CC[C@@H](OC1=O)[C@@H]23` [ACETYLUSARAMINE], for which the Activity is reported as 60%.

The next data set relates to Spodoptera littoralis. Briefly: Antifeedant activity against Spodoptera littoralis L6 larvae assessed as food consumption level orally dosed with 40 ug after 72 hr relative to untreated control. In kind it is functional.
Conditions: not given
For `C=C1C(=O)O[C@@H]2CCN3CC=C(COC(=O)[C@](C)(O)[C@H](C)[C@H]1C)[C@H]23`, the Activity came out at 98%.
Still for that read-out and setting: the result for `C/C=C1\C[C@@H](C)[C@](O)(CO)C(=O)OCC2=CCN3CC[C@@H](OC1=O)[C@@H]23` (stereo in doubt; 8) [RETRORSINE] reads 92%.
On the same count and under the same terms, the result for `C/C=C1/C[C@@H](C)[C@@](C)(OC(C)=O)C(=O)OC/C2=C/CN(C)CC[C@@H](OC1=O)C2=O` [ACETYLSENKIRKINE] reads 88%; that for `C/C=C1\C[C@@H](C)[C@](O)(COC(C)=O)C(=O)OCC2=CCN3CC[C@@H](OC1=O)[C@@H]23` [ACETYLUSARAMINE], 106%.

The next data set concerns Myzus persicae. Briefly: Antifeedant activity against Myzus persicae (green peach aphid) adults fed on compound treated […] annuum leaves assessed as feeding level at 50 ug/cm2 (reference value: 43 to 70%). In kind it is functional.
Conditions: not given
In the case of `C/C=C1\C[C@@H](C)[C@](O)(CO)C(=O)OCC2=CCN3CC[C@@H](OC1=O)[C@@H]23` (stereo in doubt; 8) [RETRORSINE], the Activity was found to be 30%.
Same read-out and setting: with `C/C=C1/C[C@@H](C)[C@@](C)(OC(C)=O)C(=O)OC/C2=C/CN(C)CC[C@@H](OC1=O)C2=O` [ACETYLSENKIRKINE] the figure was 35%; with `C/C=C1\C[C@@H](C)[C@](O)(COC(C)=O)C(=O)OCC2=CCN3CC[C@@H](OC1=O)[C@@H]23` [ACETYLUSARAMINE], 40%.

System in another data set: not listed separately
As to the kind of experiment: Toxicity against Cricetulus griseus CHO (Chinese hamster ovary) cell by MTT assay. In kind it is cell-based. To be noted: CHO cells.
Consider `C=C1C(=O)O[C@@H]2CCN3CC=C(COC(=O)[C@](C)(O)[C@H](C)[C@H]1C)[C@H]23`, for which the EC50 was found to be 13.2 µg/mL (≈ 39.4 µM).
On the same count and under the same terms, with `C/C=C1\C[C@@H](C)[C@](O)(CO)C(=O)OCC2=CCN3CC[C@@H](OC1=O)[C@@H]23` (stereo in doubt; 8) [RETRORSINE] the figure was more than 100 µg/mL; with `C/C=C1\C[C@@H](C)[C@](O)(COC(C)=O)C(=O)OCC2=CCN3CC[C@@H](OC1=O)[C@@H]23` [ACETYLUSARAMINE], more than 100 µg/mL.

For the next data set, the system named is Lactuca sativa. As to the kind of experiment: Phytotoxicity against Lactuca sativa var. Carrascoy (lettuce) assessed as inhibition of seed germination at 50 ug/cm2 after 24 hr.
Conditions: not given
It is filed as functional, organism-based.
Regarding `C/C=C1/C[C@@H](C)[C@@](C)(OC(C)=O)C(=O)OC/C2=C/CN(C)CC[C@@H](OC1=O)C2=O` [ACETYLSENKIRKINE], the inhibition entry was “Active”.
Same read-out and setting: with `C/C=C1\C[C@@H](C)[C@](O)(COC(C)=O)C(=O)OCC2=CCN3CC[C@@H](OC1=O)[C@@H]23` [ACETYLUSARAMINE] the entry was “Active”.

A further data set deals with Lactuca sativa. Briefly: Phytotoxicity against Lactuca sativa var. Carrascoy (lettuce) assessed as inhibition of seed germination at 50 ug/cm2 after 48 hr. It is filed as functional, organism-based.
Conditions: not given
With `C/C=C1/C[C@@H](C)[C@@](C)(OC(C)=O)C(=O)OC/C2=C/CN(C)CC[C@@H](OC1=O)C2=O` [ACETYLSENKIRKINE], the inhibition result is “Active”.

For another data set, the system named is Leptinotarsa decemlineata. Briefly: Antifeedant activity against Leptinotarsa decemlineata adults fed on compound treated Capsicum annuum leaves assessed as inhibition of feeding. In kind it is functional, organism-based.
Conditions: not given
Turning to `C=C1C(=O)O[C@@H]2CCN3CC=C(COC(=O)[C@](C)(O)[C@H](C)[C@H]1C)[C@H]23`, the EC50 is more than 50 microg/cm2.
Still for that read-out and setting: the result for `C/C=C1/C[C@@H](C)[C@@](C)(OC(C)=O)C(=O)OC/C2=C/CN(C)CC[C@@H](OC1=O)C2=O` [ACETYLSENKIRKINE] reads more than 50 microg/cm2.

System in a further data set: not listed separately
As to the kind of experiment: Toxicity against Spodoptera frugiperda (fall armyworm) Sf9 cells by MTT assay. It is filed as cell-based.
Conditions: not given
`C=C1C(=O)O[C@@H]2CCN3CC=C(COC(=O)[C@](C)(O)[C@H](C)[C@H]1C)[C@H]23` yielded an EC50 of more than 100 µg/mL.
In turn, `C/C=C1\C[C@@H](C)[C@](O)(CO)C(=O)OCC2=CCN3CC[C@@H](OC1=O)[C@@H]23` (stereo in doubt; 8) [RETRORSINE] had an EC50 of more than 100 µg/mL.
Still for that read-out and setting: the result for `C/C=C1\C[C@@H](C)[C@](O)(COC(C)=O)C(=O)OCC2=CCN3CC[C@@H](OC1=O)[C@@H]23` [ACETYLUSARAMINE] reads more than 100 µg/mL.

In the next data set the test system is Spodoptera littoralis. As to the kind of experiment: Antifeedant activity against Spodoptera littoralis sixth-instar larvae fed on compound treated Solanum tuberosum leaves assessed as inhibition of feeding. In kind it is functional, organism-based.
Conditions: not given
On to `C=C1C(=O)O[C@@H]2CCN3CC=C(COC(=O)[C@](C)(O)[C@H](C)[C@H]1C)[C@H]23`, for which the EC50 is more than 50 microg/cm2.
Regarding `C/C=C1/C[C@@H](C)[C@@](C)(OC(C)=O)C(=O)OC/C2=C/CN(C)CC[C@@H](OC1=O)C2=O` [ACETYLSENKIRKINE], the EC50 is given as more than 50 microg/cm2.
